Literature values, collected in patent publication US9320746B2, “Method for treating intestinal fibrosis” (Sigmoid Pharma Limited, priority 2013, dated 2016).

Settings: extensive first-pass elimination; compared with other corticosteroid formulations

For `CCCC1O[C@@H]2C[C@H]3[C@@H]4CCC5=CC(=O)C=C[C@]5(C)[C@H]4[C@@H](O)C[C@]3(C)[C@]2(C(=O)CO)O1` (stereo partly drawn) [budesonide, 16,17-butylidendioxy-11β,21-dihydroxy-1,4-pregnadien-3,20-dione], the systemic bioavailability is listed as 10-15%.
